According to patent publication US6391296B1 (priority 1997, dated 2002):

Key:
[1] = test system: recombinant Bombyx mori nuclear polyhedrosis viruses rBNVγ; format: cell-based, Bombyx mori nuclear polyhedrosis virus; details: pH 3.5
Escherichia coli JM101 = format: cell-based; details: Addition of 20 mg/l of thiaisoleucine, 30° C., 48 hours; no addition = 100
Escherichia coli TI41 = format: cell-based; details: Addition of 20 mg/l of thiaisoleucine, 30° C., 48 hours; no addition = 100
Escherichia coli TI139 = format: cell-based; details: Addition of 20 mg/l of thiaisoleucine, 30° C., 48 hours; no addition = 100

Molecule	Amount of infectious viruses [1]	Relative degree of growth (Escherichia coli JM101)	Relative degree of growth (Escherichia coli TI41)	Relative degree of growth (Escherichia coli TI139)
CC(C)(C)CC(C)(C)c1ccc(OCCOCC[N+](C)(C)Cc2ccccc2)cc1 [benzethonium chloride]	Not detected	–	–	–
thiaisoleucine	–	17.1%	95.2%	106.1%
